In article PMC8532962 (Antibiotics, 2021):
In brackets after ≈: the same amount, converted by molar mass. Peptide text beside a SMILES is read from it.

Columns and labels:
[1] = test system: Schizosaccharomyces pombe 972h-; assay: microbe, parasite or virus in culture; conditions: read-out: MIC Sp
[2] = test system: Aspergillus nidulans FGSC A4; assay: microbe, parasite or virus in culture; conditions: FGSCA4, 24 h, read-out: MIC An
[3] = test system: Saccharomyces cerevisiae S288C; assay: microbe, parasite or virus in culture; conditions: 24 h, read-out: MIC Sc
[4] = test system: Histoplasma capsulatum G217B; assay: microbe, parasite or virus in culture; conditions: 96 h, read-out: MIC Hc
Candida albicans SC5314 [5] = assay: microbe, parasite or virus in culture; conditions: SC5314, 24 h, read-out: MIC Ca
[6] = test system: Saccharomyces cerevisiae S288C; conditions: 24 h
tested bacteria = format: cell-based
[7] = test system: Aspergillus nidulans FGSC A4; conditions: 24 h
[8] = test system: Schizosaccharomyces pombe 972h-
Candida albicans SC5314 [9] = conditions: SC5314, 24 h
[10] = test system: Histoplasma capsulatum G217B; conditions: 96 h
human erythrocytes [11] = assay: Hemolytic activity; format: cell-based; conditions: 1% human erythrocytes in PBS, 37 °C, 1 h, hemoglobin at 416 nm, 100% = 1% TritonX-100, biological triplicate
Experimental: Type O+ fresh human blood was purchased from Tennessee Blood Services Corp. (Memphis, TN, USA) in 10% citrate phosphate dextrose 10X phosphate saline solution (PBS) and EDTA (K2). Upon receiving the blood, it was washed using three volumes of 1X PBS + 5 mM glucose. The suspension was centrifuged at 1000× g for 10 min at 4 °C and the supernatant removed. The process was repeated two more times. The sedimented cells were resuspended in the same volume of 1X PBS + 5 mM glucose and stored at 4 °C until use.
[…] The cell suspensions were incubated at 37 °C for 1 h. The unlysed erythrocytes were removed by centrifugation (16,000× g) and the released hemoglobin was determined spectrophotometrically at 416 nm using a NanoDrop spectrophotometer (Thermo Fisher Scientific, Waltham, MA, USA). The control for no release of hemoglobin was a sample of 1% erythrocytes incubated in PBS without peptide. The control for 100% release of hemoglobin was a sample of 1% erythrocyte incubated in PBS with 1% TritonX-100. Each assay was performed in biological triplicate.

P. aeruginosa = assay: Antibacterial MIC, microbroth dilution; format: cell-based, Pseudomonas aeruginosa ATCC 27853; conditions: P. aeruginosa ATCC 27853; CLSI microbroth dilution, cation-adjusted Mueller-Hinton broth, 37 °C, OD600 every 15 min for 20 h, biological triplicate
Experimental: (§1) The antibacterial activity of the natural peptides and analogs was determined using the standard microbroth dilution method for determining minimal inhibitory concentration (MIC). […] The analog EMP-ER-D2K2 is the only analog that has some, but low, activity against B. subtilis with an MIC of 200 μg/mL.
(§2) Escherichia coli ATCC 25922 was obtained from ATCC and Pseudomonas aeruginosa ATCC 27853 was obtained from Carolina Biologicals. Staphylococcus aureus Newman was the S. aureus strain and the B. subtilis strain was JH642 (trpC2, pheA1).
(§3) Bacteria were grown on LB-agar plates (Fisher, Waltham, MA, USA) overnight at 37 °C, then stored at 4 °C until use. Four colonies were inoculated from the plate into 5 mL cation-adjusted Mueller-Hinton medium (Sigma) and grown to approximately OD600 = 1–2 at 37 °C in a shaking incubator at 250 rpm in preparation for antimicrobial activity testing. MICs were determined in cation-adjusted Mueller-Hinton broth using the microbroth dilution method from the Clinical and Laboratory Standards Institute. Growth was monitored by determining the optical density at 600 nm using a BioTek Synergy HTX multi-mode 96-well plate reader set to incubate at 37 °C and record every 15 min for 20 h. Each assay was performed in biological triplicate.

E. coli = assay: Antibacterial MIC, microbroth dilution; format: cell-based, Escherichia coli ATCC 25922; conditions: E. coli ATCC 25922; CLSI microbroth dilution, cation-adjusted Mueller-Hinton broth, 37 °C, OD600 every 15 min for 20 h, biological triplicate
Experimental: as §1, §2, §3

S. aureus = assay: Antibacterial MIC, microbroth dilution; format: cell-based; conditions: Staphylococcus aureus Newman; CLSI microbroth dilution, cation-adjusted Mueller-Hinton broth, 37 °C, OD600 every 15 min for 20 h, biological triplicate
Experimental: as §1, §2, §3

B. subtilis = assay: Antibacterial MIC, microbroth dilution; format: cell-based, Bacillus subtilis JH642; conditions: B. subtilis JH642; CLSI microbroth dilution, cation-adjusted Mueller-Hinton broth, 37 °C, OD600 every 15 min for 20 h, biological triplicate
Experimental: as §1, §2, §3

human erythrocytes [12] = conditions: cited from earlier work
Experimental: For EMP-ER, Konno reports 100% hemolysis for a concentration of 0.5 μg/mL and about 50% for 0.18 μg/mL [33].

| SMILES | MIC [1] | MIC [2] | MIC [3] | MIC [4] | MIC (Candida albicans SC5314 [5]) | MIC Sc [6] | antibacterial activity (tested bacteria) | MIC An [7] | MIC Sp [8] | MIC Ca (Candida albicans SC5314 [9]) | MIC Hc [10] | hemolysis (human erythrocytes [11]) | MIC P. aeruginosa (P. aeruginosa) | MIC E. coli (E. coli) | MIC S. aureus (S. aureus) | MIC B. subtilis (B. subtilis) | hemolysis (release) (human erythrocytes [12]; at concentrations of 0.5 μg/m) | hemolysis potency relative to mastoparan (human erythrocytes [12]) |
| --- | --- | --- | --- | --- | --- | --- | --- | --- | --- | --- | --- | --- | --- | --- | --- | --- | --- | --- |
| C[C@@H]1[C@H](O)[C@@H](C)/C=C/C=C/C=C/C=C/C=C/C=C/C=C/[C@H](O[C@@H]2O[C@H](C)[C@@H](O)[C@H](N)[C@@H]2O)C[C@@H]2O[C@](O)(C[C@@H](O)C[C@@H](O)[C@H](O)CC[C@@H](O)C[C@@H](O)CC(=O)O[C@H]1C)C[C@H](O)[C@H]2C(=O)O [Amphotericin B] | 0.25 µg/mL (≈ 0.271 µM) | > 16 µg/mL | 1 µg/mL (≈ 1.08 µM) | 0.5 µg/mL (≈ 0.541 µM) | 0.5 µg/mL (≈ 0.541 µM) | – | – | – | – | – | – | – | – | – | – | – | – | – |
| CC[C@H](C)[C@H](N)C(=O)N[C@@H](CC(N)=O)C(=O)N[C@@H](CCCCN)C(=O)N[C@@H](CC(C)C)C(=O)N[C@H](C(=O)N[C@H](C(=O)N[C@@H](CCCCN)C(=O)N[C@H](C(=O)NCC(=O)N[C@@H](CCCCN)C(=O)N[C@H](C(=O)N[C@H](C(=O)N[C@@H](CO)C(=O)N[C@@H](CC(C)C)C(N)=O)C(C)C)[C@@H](C)CC)C(C)C)[C@@H](C)CC)C(C)C [EMP-AF-KV] (H-INKLVIKVGKIVSL-NH2) | – | – | – | – | – | >256 µg/mL | no antibacterial activity | >256 µg/mL | >256 µg/mL | >256 µg/mL | >256 µg/mL | – | – | – | – | – | – | – |
| CC[C@H](C)[C@H](N)C(=O)N[C@@H](CC(N)=O)C(=O)N[C@@H](CC(C)C)C(=O)N[C@@H](CC(C)C)C(=O)N[C@@H](CCCCN)C(=O)N[C@H](C(=O)N[C@@H](C)C(=O)N[C@@H](CCCCN)C(=O)NCC(=O)N[C@H](C(=O)N[C@H](C(=O)N[C@@H](CCCCN)C(=O)N[C@@H](CO)C(=O)N[C@@H](CC(C)C)C(N)=O)[C@@H](C)CC)[C@@H](C)CC)[C@@H](C)CC [EMP-AF-OR] (H-INLLKIAKGIIKSL-NH2) | – | – | – | – | – | >256 µg/mL | – | >256 µg/mL | >256 µg/mL | >256 µg/mL | 128 µg/mL (≈ 84 µM) | 100% | 200 µg/mL | 25 µg/mL | 25 µg/mL | 10 µg/mL | 75% | one-third |
